According to ChEMBL document CHEMBL1133988 (Bioorg Med Chem Lett, 2001):
In brackets after ≈: the same amount, converted by molar mass.

Experiments:
[1] = Binding affinity towards histone deacetylase (HDAC) enzyme derived from chicken liver (CL) cells using [3H]11; set-up: species or system Gallus gallus
Eimeria tenella = test: In vitro antiprotozoal activity using […] bovine kidney host cells infected with Eimeria tenella; format: functional
Plasmodium falciparum = test: In vitro antiprotozoal activity against Plasmodium falciparum infected erythrocytes; format: functional, organism-based
Histone deacetylase = test: Inhibitory activity against histone deacetylase (HDAC) enzyme derived from partially purified extracts of human HeLa cells using [3H]11 as radioligand
[2] = Tested in vitro by mammalian antiproliferative functional assay using human HeLa cells or foreskin fibroblasts
[3] = Binding affinity towards HDAC enzyme derived from chicken liver (CL) cells; set-up: species or system Gallus gallus

Row | SMILES | Ki [1] [nM] | MIC (Eimeria tenella) [µg/mL] | IC50 (Plasmodium falciparum) [µg/mL] | IC50 (Histone deacetylase) [nM] | AP50 [2] [ng/mL] | Ki [3] [nM]
1 | CCC(=O)CCCCC[C@@H]1NC(=O)[C@H]2CCCCN2C(=O)[C@H]([C@@H](C)CC)NC(=O)[C@H](C(=O)c2c[nH]c3ccccc23)NC1=O | 12 | 0.125 (≈ 0.206 µM) | 0.016 (≈ 0.0263 µM) | – | – | –
2 | CCC(=O)CCCCC[C@@H]1NC(=O)[C@H]2CCCCN2C(=O)[C@H]([C@@H](C)CC)NC(=O)[C@H](CC(=O)c2ccccc2[N+](=O)[O-])NC1=O | – | 0.125 (≈ 0.199 µM) | 0.5 (≈ 0.797 µM) | 91 | – | –
3 | CCC(=O)CCCCC[C@@H]1NC(=O)[C@H]2CCCCN2C(=O)[C@H]([C@@H](C)CC)NC(=O)[C@@H](C(=O)Cc2ccccc2)NC1=O | – | 0.5 (≈ 0.858 µM) | 0.777 (≈ 1.33 µM) | – | >10000 | 500
4 | CCC(=O)CCCCC[C@@H]1NC(=O)[C@H]2CCCCN2C(=O)[C@H]([C@@H](C)CC)NC(=O)[C@@H](c2cnc3ccccc3c2O)NC1=O | – | > 1 | 0.055 (≈ 0.0905 µM) | – | >10000 | 500
5 | CCC(=O)CCCCC[C@@H]1NC(=O)[C@H]2CCCCN2C(=O)[C@H]([C@@H](C)CC)NC(=O)[C@H](c2cnc3ccccc3c2O)NC1=O | – | > 1 | 0.04 (≈ 0.0658 µM) | – | >10000 | 1000
6 | CCC(=O)CCCCC[C@@H]1NC(=O)[C@H]2CCCCN2C(=O)[C@H]([C@@H](C)CC)NC(=O)[C@H](c2cn(CC)c3ccccc3c2=O)NC1=O | – | > 1 | 0.24 (≈ 0.377 µM) | – | >10000 | 2000
7 | CCC(=O)CCCCC[C@@H]1NC(=O)[C@H]2CCCCN2C(=O)[C@H]([C@@H](C)CC)NC(=O)[C@H](c2cn(OC)c3ccccc3c2=O)NC1=O | – | 0.25 (≈ 0.392 µM) | 0.04 (≈ 0.0627 µM) | – | 10000 | 1500
8 | CCC(=O)CCCCC[C@@H]1NC(=O)[C@H]2CCCCN2C(=O)[C@H]([C@@H](C)CC)NC(=O)[C@H](CCOc2ccccc2)NC1=O | – | 0.25 (≈ 0.428 µM) | – | 34 | 1450 | –
9 | CCC(=O)CCCCC[C@@H]1NC(=O)[C@H]2CCCCN2C(=O)[C@H]([C@@H](C)CC)NC(=O)[C@H](Cc2c(Br)[nH]c3ccccc23)NC1=O | 3 | 0.015 (≈ 0.0223 µM) | 0.025 (≈ 0.0372 µM) | – | – | –
10 | CCC(=O)CCCCC[C@@H]1NC(=O)[C@H]2CCCCN2C(=O)[C@H]([C@@H](C)CC)NC(=O)[C@H](Cc2c(-c3ccc4c(ccn4C)c3)[nH]c3ccccc23)NC1=O | 5 | 0.062 (≈ 0.0858 µM) | 0.1 (≈ 0.138 µM) | – | – | –
11 | CCC(=O)CCCCC[C@@H]1NC(=O)[C@H]2CCCCN2C(=O)[C@H]([C@@H](C)CC)NC(=O)[C@H](Cc2cn(CC(=O)O)c3ccccc23)NC1=O | 80 | > 1 | > 1 | – | – | –
12 | CCC(=O)CCCCC[C@@H]1NC(=O)[C@H]2CCCCN2C(=O)[C@H]([C@@H](C)CC)NC(=O)[C@H](CC(=O)Cc2ccccc2)NC1=O | – | > 1 | 0.85 (≈ 1.42 µM) | – | >10000 | 2000
13 | CCC(=O)CCCCC[C@@H]1NC(=O)[C@H]2CCCCN2C(=O)[C@H]([C@@H](C)CC)NC(=O)[C@@H](C(=O)c2ccc3c(ccn3C)c2)NC1=O | 20 | 0.05 (≈ 0.0804 µM) | 0.015 (≈ 0.0241 µM) | – | – | –
14 | CCC(=O)CCCCC[C@@H]1NC(=O)[C@H]2CCCCN2C(=O)[C@H]([C@@H](C)CC)NC(=O)[C@@H](C(=O)c2c[nH]c3ccccc23)NC1=O | 30 | 0.125 (≈ 0.206 µM) | 0.07 (≈ 0.115 µM) | – | – | –
15 | CCC(=O)CCCCC[C@@H]1NC(=O)[C@H]2CCCCN2C(=O)[C@H]([C@@H](C)CC)NC(=O)[C@H](CC(=O)C(C)(C)C)NC1=O | – | > 1 | 0.775 (≈ 1.38 µM) | – | >10000 | 2000
16 | CCC(=O)CCCCC[C@@H]1NC(=O)[C@H]2CCCCN2C(=O)[C@H]([C@@H](C)CC)NC(=O)[C@H](c2cnc3ccccc3c2N2CCCCC2)NC1=O [listing 1 of 2 here] | – | – | 0.055 (≈ 0.0815 µM) | 13 | – | 100

Row | SMILES | Ki [1] [nM] | MIC (Eimeria tenella) [µg/mL] | IC50 (Plasmodium falciparum) [µg/mL] | IC50 (Histone deacetylase) [nM] | AP50 [2] [ng/mL] | Ki [3] [nM]
17 | CCC(=O)CCCCC[C@@H]1NC(=O)[C@H]2CCCCN2C(=O)[C@H]([C@@H](C)CC)NC(=O)[C@H](c2cnc3ccccc3c2N2CCCCC2)NC1=O [listing 2 of 2 here] | – | 0.125 (≈ 0.185 µM) | – | – | 2500 | –
18 | CCC(=O)CCCCC[C@@H]1NC(=O)[C@H]2CCCCN2C(=O)[C@H]([C@@H](C)CC)NC(=O)[C@H](c2cnc3ccccc3c2Cl)NC1=O [listing 1 of 2 here] | – | – | 0.225 (≈ 0.359 µM) | 67 | – | 300
19 | CCC(=O)CCCCC[C@@H]1NC(=O)[C@H]2CCCCN2C(=O)[C@H]([C@@H](C)CC)NC(=O)[C@H](c2cnc3ccccc3c2Cl)NC1=O [listing 2 of 2 here] | – | 0.2 (≈ 0.319 µM) | – | – | 10000 | –
20 | CCC(=O)CCCCC[C@@H]1NC(=O)[C@H]2CCCCN2C(=O)[C@H]([C@@H](C)CC)NC(=O)[C@H](Cc2c(-c3ccccc3)[nH]c3ccccc23)NC1=O | – | > 1 | 0.7 (≈ 1.04 µM) | 4 | – | –
21 | CCC(=O)CCCCC[C@@H]1NC(=O)[C@H]2CCCCN2C(=O)[C@H]([C@@H](C)CC)NC(=O)[C@H](Cc2c(-c3cc(OC)cc(OC)c3)[nH]c3ccccc23)NC1=O | – | 0.125 (≈ 0.171 µM) | 0.25 (≈ 0.343 µM) | 0.2 | – | –
22 | CCC(=O)CCCCC[C@@H]1NC(=O)[C@H]2CCCCN2C(=O)[C@H]([C@@H](C)CC)NC(=O)[C@H](CC2CN(OC)c3ccc(Br)cc32)NC1=O (stereo not given in full) | 4500 | 0.1 (≈ 0.142 µM) | > 1 | – | – | –
23 | CCCCCCCCCCC(=O)C[C@@H]1NC(=O)[C@H](CCCCCC(=O)CC)NC(=O)[C@H]2CCCCN2C(=O)[C@H]([C@@H](C)CC)NC1=O | – | > 1 | > 1 | – | >10000 | > 1000
24 | CCC(=O)CCCCC[C@@H]1NC(=O)[C@H]2CCCCN2C(=O)[C@H]([C@@H](C)CC)NC(=O)[C@H](Cc2cn(OC)c3ccc(Br)cc23)NC1=O | 60 | 0.5 (≈ 0.712 µM) | 0.55 (≈ 0.783 µM) | – | – | –
25 | CCC(=O)CCCCC[C@@H]1NC(=O)[C@H]2CCCCN2C(=O)[C@H]([C@@H](C)CC)NC(=O)[C@H](Cc2c[nH]c3ccccc23)NC1=O | – | 0.031 (≈ 0.0522 µM) | 0.035 (≈ 0.0589 µM) | 2 | – | –
26 | CCCn1cc(C(=O)[C@H]2NC(=O)[C@H](CCCCCC(=O)CC)NC(=O)[C@H]3CCCCN3C(=O)[C@H]([C@@H](C)CC)NC2=O)c2ccccc21 | – | 0.125 (≈ 0.192 µM) | 0.15 (≈ 0.231 µM) | 15 | – | –
27 | CCC(=O)CCCCC[C@@H]1NC(=O)[C@H]2CCCCN2C(=O)[C@H]([C@@H](C)CC)NC(=O)[C@H](Cc2cn(CN3CCCC3)c3ccccc23)NC1=O | – | 0.031 (≈ 0.0458 µM) | 0.035 (≈ 0.0517 µM) | 0.2 | – | –
28 | CCC(=O)CCCCC[C@@H]1NC(=O)[C@H]2CCCCN2C(=O)[C@H]([C@@H](C)CC)NC(=O)[C@H](Cc2cn(CCN)c3ccccc23)NC1=O | – | > 1 | 0.1 (≈ 0.157 µM) | 1.3 | – | –
29 | CCC(=O)CCCCC[C@@H]1NC(=O)[C@H]2CCCCN2C(=O)[C@H]([C@@H](C)CC)NC(=O)[C@H](Cc2cn(CC)c3ccccc23)NC1=O | 10 | 0.05 (≈ 0.0804 µM) | 0.18 (≈ 0.289 µM) | – | – | –
30 | CCC(=O)CCCCC[C@@H]1NC(=O)[C@H]2CCCCN2C(=O)[C@H]([C@@H](C)CC)NC(=O)[C@H](Cc2cn(C)c3ccccc23)NC1=O | 5 | 0.125 (≈ 0.206 µM) | 0.02 (≈ 0.0329 µM) | – | – | –
31 | CCC(=O)CCCCC[C@@H]1NC(=O)[C@H]2CCCCN2C(=O)[C@H]([C@@H](C)CC)NC(=O)[C@H](Cc2cn(OC)c3ccccc23)NC1=O [APICIDIN] | – | 0.094 (≈ 0.151 µM) | 0.058 (≈ 0.093 µM) | – | 89 | 4
